The results in this text go back to publication PMC6177011, “Idebenone and coenzyme Q10 are novel PPARα/γ ligands, with potential for treatment of fatty liver diseases” (Disease Models & Mechanisms, 2018).

What all share (type): cell-based
The target of one assay is T1, hPPARδ/β (Homo sapiens, UniProt Q03181).
T1 construct: gene PPARD; GAL4-hPPARδ LBD fusion
T1 sequence (Q03181 171-441 limits assumed): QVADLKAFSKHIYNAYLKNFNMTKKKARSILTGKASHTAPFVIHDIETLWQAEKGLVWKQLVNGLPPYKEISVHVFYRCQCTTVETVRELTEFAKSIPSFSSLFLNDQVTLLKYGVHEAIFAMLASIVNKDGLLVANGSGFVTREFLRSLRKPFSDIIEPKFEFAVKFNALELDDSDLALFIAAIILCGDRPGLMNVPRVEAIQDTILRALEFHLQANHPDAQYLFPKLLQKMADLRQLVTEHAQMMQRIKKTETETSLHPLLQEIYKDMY
In words: GAL4-LBD UAS-luciferase reporter in HEK293. (In general: In a reporter assay the amount or activity of a reporter protein is the signal.)

A further assay has as its target T2, PPARγ (Homo sapiens, UniProt P37231).
T2 construct: gene PPARG; PPARγ (aa 189-477) LBD fusion
T2 sequence (P37231 217-505): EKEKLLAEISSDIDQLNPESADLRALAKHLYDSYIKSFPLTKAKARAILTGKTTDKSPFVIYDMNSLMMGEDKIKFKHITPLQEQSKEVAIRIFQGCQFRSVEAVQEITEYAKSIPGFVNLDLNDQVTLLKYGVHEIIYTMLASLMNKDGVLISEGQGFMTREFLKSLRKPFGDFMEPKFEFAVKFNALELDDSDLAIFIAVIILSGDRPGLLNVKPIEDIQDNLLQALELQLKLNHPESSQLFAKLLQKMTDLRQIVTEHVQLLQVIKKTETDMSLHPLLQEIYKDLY
In words: antagonism of the human PPARγ LBD ligand-trap GFP reporter in transgenic zebrafish.

Another assay concerns the target T3, PPARα (Homo sapiens, UniProt Q07869).
T3 construct: gene PPARA; His-tagged PPARα LBD
T3 sequence (Q07869 196-468 limits assumed): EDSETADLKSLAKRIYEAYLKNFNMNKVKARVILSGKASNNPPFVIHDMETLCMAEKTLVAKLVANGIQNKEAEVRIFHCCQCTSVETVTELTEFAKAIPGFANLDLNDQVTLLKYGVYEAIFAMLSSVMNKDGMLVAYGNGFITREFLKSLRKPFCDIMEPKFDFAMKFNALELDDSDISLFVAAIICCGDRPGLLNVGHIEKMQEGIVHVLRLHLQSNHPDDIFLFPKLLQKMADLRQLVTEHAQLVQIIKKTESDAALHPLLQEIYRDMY
In words: co-purification with purified LBD and LC-MS; EC50 from GAL4-LBD luciferase reporter in HEK293.

Molecules are shown by their SMILES.

A word on the EC50: it is the concentration giving half of the maximal effect. Low readings indicate higher potency in that assay, high ones lower potency in that assay. Turning to `O=C(O)COc1ccc(SCC=C(c2ccc(Br)cc2)c2ccc(Br)cc2)cc1Cl` [CAY10592], the EC50 on hPPARδ/β was 12.8 nM.
For the compound `O=C(Nc1ccccc1)c1cc([N+](=O)[O-])ccc1Cl` [GW9662], on PPARγ, the “antagonism of the human PPARγ LBD ligand-trap GFP reporter in transgenic zebrafi” value was “The GW9662 suicide antagonist blocks agonist activity of rosiglitazone and idebenone, but not of RA”.
As to `COC1=C(OC)C(=O)C(CCCCCCCCCCO)=C(C)C1=O` [idebenone], at PPARα, the EC50 came out at 2500 nM.
